The values that follow come from patent publication US10519134B2, “Pyrazole compounds and methods of making and using same” (Lundbeck La Jolla Research Center, Inc., priority 2015, dated 2019).

Structures are written as SMILES.

For one assay, the target named is T1, MAGL (Mus musculus, UniProt O35678).
T1 construct: Proteomes (mouse brain membrane fraction or cell lysates); from tissue; host or cells: mouse brain membrane fraction (or cell lysates)
T1 sequence (O35678 1-303): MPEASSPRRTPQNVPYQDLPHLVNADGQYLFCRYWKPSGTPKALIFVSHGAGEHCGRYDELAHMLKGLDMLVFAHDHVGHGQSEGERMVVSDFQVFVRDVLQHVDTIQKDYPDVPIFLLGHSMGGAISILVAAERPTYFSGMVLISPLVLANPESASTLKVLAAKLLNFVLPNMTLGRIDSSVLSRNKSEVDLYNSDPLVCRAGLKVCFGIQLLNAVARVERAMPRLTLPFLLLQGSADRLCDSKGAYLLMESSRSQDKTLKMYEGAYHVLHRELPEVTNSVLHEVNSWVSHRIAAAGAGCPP
Kind of assay: In vitro competitive activity-based protein profiling (mouse), MAGL gel band. Format: biochemical. The note with it: for IC50: mouse; for inhibition at 1 µM: read-out: MAGL % inh. 1 μM. As to the method:
(§1) In Vitro Competitive Activity-Based Protein Profiling (Mouse).
(§2) Proteomes (mouse brain membrane fraction or cell lysates) (50 μL, 1.0 mg/mL total protein concentration) were preincubated with varying concentrations of inhibitors at 37° C. After 30 min, FP-Rh or HT-01 (1.0 μL, 50 μM in DMSO) was added and the mixture was incubated for another 30 min at 37° C. Reactions were quenched with SDS loading buffer (15 μL—4×) and run on SDS-PAGE. Following gel imaging, serine hydrolase activity was determined by measuring fluorescent intensity of gel bands corresponding to MAGL, ABHD6, and FAAH, using ImageJ 1.43u software.

Another assay addresses T2, FAAH (Mus musculus, UniProt O08914).
T2 construct: Proteomes (mouse brain membrane fraction or cell lysates); from tissue; host or cells: mouse brain membrane fraction (or cell lysates)
T2 sequence (O08914 1-579): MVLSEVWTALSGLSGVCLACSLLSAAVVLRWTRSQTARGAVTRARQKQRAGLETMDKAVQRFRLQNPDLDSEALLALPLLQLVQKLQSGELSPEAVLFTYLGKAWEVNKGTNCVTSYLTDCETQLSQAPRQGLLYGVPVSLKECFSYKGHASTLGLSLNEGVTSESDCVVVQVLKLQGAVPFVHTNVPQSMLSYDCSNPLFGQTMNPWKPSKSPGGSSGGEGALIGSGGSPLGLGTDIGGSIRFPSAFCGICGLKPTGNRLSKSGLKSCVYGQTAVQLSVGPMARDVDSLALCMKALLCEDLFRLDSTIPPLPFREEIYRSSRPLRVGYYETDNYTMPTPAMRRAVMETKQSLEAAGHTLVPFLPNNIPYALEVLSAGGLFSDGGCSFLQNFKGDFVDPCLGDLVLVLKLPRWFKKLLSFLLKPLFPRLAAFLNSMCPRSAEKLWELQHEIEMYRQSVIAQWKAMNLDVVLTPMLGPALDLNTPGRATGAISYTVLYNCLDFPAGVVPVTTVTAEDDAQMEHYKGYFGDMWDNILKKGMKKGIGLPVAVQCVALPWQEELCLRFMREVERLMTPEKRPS
Kind of assay: In vitro competitive activity-based protein profiling (mouse), FAAH gel band. Type of assay: biochemical. To be noted: for IC50: mouse; for inhibition at 1 µM: read-out: FAAH % inh. 1 μM. On the procedure: as §1, §2

By IC50 is commonly meant the midpoint of a concentration-inhibition curve. As to `CC(=O)Nc1ccn(C(=O)N2CCC3(CCCN3Cc3ccc(Cl)cc3N3CCN(C(C)=O)CC3)CC2)n1` [Example 36, N-(1-(1-(2-(4-acetylpiperazin-1-yl)-4-chlorobenzyl)-1,8-diazaspiro[4.5]decane-8-carbonyl)-1H-pyrazol-3-yl)acetamide], on MAGL, the IC50 lay within 100 to 1000 nM and the inhibition at 1 µM was not below 75%. Moreover, on FAAH, the IC50 fell in the range of 1000 to 10000 nM and the inhibition at 1 µM was 0 to 25%.
For `CC(=O)Nc1ccn(C(=O)N2CCN(Cc3ccc(C(F)(F)F)cc3N3CCC(F)(F)CC3)CC2)n1` [Example 46, N-(1-(4-(2-(4,4-difluoropiperidin-1-yl)-4-(trifluoromethyl)benzyl)piperazine-1-carbonyl)-1H-pyrazol-3-yl)acetamide] the same measures were not above 100 nM, not below 75%, 1000 to 10000 nM and 0 to 25%.
For `CC(=O)Nc1ccn(C(=O)N2CCN(Cc3ccc(Cl)cc3N3CCC(F)(F)CC3)CC2)n1` [Example 57, N-(1-(4-(4-chloro-2-(4,4-difluoropiperidin-1-yl)benzyl)piperazine-1-carbonyl)-1H-pyrazol-3-yl)acetamide] the same measures were not above 100 nM, not below 75%, 1000 to 10000 nM and 0 to 25%.
For `CCN1CCN(c2cc(Cl)ccc2CN2CCN(C(=O)n3ccc(NC(C)=O)n3)CC2)CC1` [Example 59, N-(1-(4-(4-chloro-2-(4-ethylpiperazin-1-yl)benzyl)piperazine-1-carbonyl)-1H-pyrazol-3-yl)acetamide], at MAGL, the IC50 is 100 to 1000 nM and the inhibition at 1 µM was not below 75%. Besides, at FAAH, the IC50 lay in the range of 1000 to 10000 nM and the inhibition at 1 µM fell in the range of 0 to 25%.
Taken in the same sequence, the figures for `CC(=O)Nc1ccn(C(=O)N2CCC3(CCCN3Cc3cc(Cl)cc(N4C5CCC4COC5)c3)CC2)n1` [Example 64, N-(1-(1-(3-(3-oxa-8-azabicyclo[3.2.1]octan-8-yl)-5-chlorobenzyl)-1,8-diazaspiro[4.5]decane-8-carbonyl)-1H-pyrazol-3-yl)acetamide] were not above 100 nM, not below 75%, 1000 to 10000 nM and 0 to 25%.
Turning to `CC(=O)Nc1ccn(C(=O)N2CCC3(CCCN3Cc3cc(Cl)cc(N4CC5CN(C(C)=O)CC5C4)c3)CC2)n1` (stereo not shown) [Example 65, N-(1-(1-(3-(5-acetylhexahydropyrrolo[3,4-c]pyrrol-2(1H)-yl)-5-chlorobenzyl)-1,8-diazaspiro[4.5]decane-8-carbonyl)-1H-pyrazol-3-yl)acetamide], the inhibition at 1 µM on MAGL is not below 75%; at FAAH, 25 to 50%.
For `CC(=O)N(C)c1ccn(C(=O)N2CCC3(CCCN3Cc3cc(N4CCCC4)cc(C(F)(F)F)c3)CC2)n1` [Example 66, N-methyl-N-(1-(1-(3-(pyrrolidin-1-yl)-5-(trifluoromethyl)benzyl)-1,8-diazaspiro[4.5]decane-8-carbonyl)-1H-pyrazol-3-yl)acetamide] the same measures were 50 to 75% and 0 to 25%.
For `CC(=O)N(C)c1ccn(C(=O)N2CCC3(CCCN3Cc3cc(N4C5CCC4COC5)cc(C(F)(F)F)c3)CC2)n1` [Example 67, N-(1-(1-(3-(3-oxa-8-azabicyclo[3.2.1]octan-8-yl)-5-(trifluoromethyl)benzyl)-1,8-diazaspiro[4.5]decane-8-carbonyl)-1H-pyrazol-3-yl)-N-methylacetamide] the same measures were 0 to 25% and 0 to 25%.
For `CC(=O)N(C)c1ccn(C(=O)N2CCC3(CCCN3Cc3ccc(C(F)(F)F)cc3N3CCCC3)CC2)n1` [Example 68, N-methyl-N-(1-(1-(2-(pyrrolidin-1-yl)-4-(trifluoromethyl)benzyl)-1,8-diazaspiro[4.5]decane-8-carbonyl)-1H-pyrazol-3-yl)acetamide] the same measures were 50 to 75% and 0 to 25%.
For `CC(=O)N(C)c1ccn(C(=O)N2CCN(Cc3cc(N4CCCC4)cc(C(F)(F)F)c3)CC2)n1` [Example 70, N-methyl-N-(1-(4-(3-(pyrrolidin-1-yl)-5-(trifluoromethyl)benzyl)piperazine-1-carbonyl)-1H-pyrazol-3-yl)acetamide], at MAGL, the IC50 fell in the range of 100 to 1000 nM and the inhibition at 1 µM was not below 75%. At FAAH, the IC50 lay in the range of 1000 to 10000 nM and the inhibition at 1 µM fell in the range of 0 to 25%.
Regarding `CC(=O)Nc1ccn(C(=O)N2CCN(Cc3ccc(C(F)(F)F)cc3Oc3nc4ccccc4s3)CC2)n1` [Example 75, N-(1-(4-(2-(benzo[d]thiazol-2-yloxy)-4-(trifluoromethyl)benzyl)piperazine-1-carbonyl)-1H-pyrazol-3-yl)acetamide], on MAGL, the IC50 is not above 100 nM and the inhibition at 1 µM was not below 75%. On FAAH, the IC50 was 1000 to 10000 nM and the inhibition at 1 µM is 0 to 25%.
`CC(=O)Nc1ccn(C(=O)N2CCN(Cc3cc(Oc4nc5ccccc5s4)cc(C(F)(F)F)c3)CC2)n1` [Example 76, N-(1-(4-(3-(benzo[d]thiazol-2-yloxy)-5-(trifluoromethyl)benzyl)piperazine-1-carbonyl)-1H-pyrazol-3-yl)acetamide]: on MAGL, the IC50 is not above 100 nM and the inhibition at 1 µM is not below 75%. On FAAH, the IC50 was in the range of 100 to 1000 nM and the inhibition at 1 µM was not below 75%.
Consider `CC(=O)Nc1ccn(C(=O)N2CCN(Cc3ccc(C(F)(F)F)cc3OC3CCS(=O)(=O)CC3)CC2)n1` [Example 77, N-(1-(4-(2-((1,1-dioxidotetrahydro-2H-thiopyran-4-yl)oxy)-4-(trifluoromethyl)benzyl)piperazine-1-carbonyl)-1H-pyrazol-3-yl)acetamide], for which the inhibition at 1 µM was not below 75% on MAGL and 0 to 25% on FAAH.
`CC(=O)Nc1ccn(C(=O)N2CCC3(CCCN3Cc3cc(Oc4nc5ccccc5s4)cc(C(F)(F)F)c3)CC2)n1` [Example 86, N-(1-(1-(3-(benzo[d]thiazol-2-yloxy)-5-(trifluoromethyl)benzyl)-1,8-diazaspiro[4.5]decane-8-carbonyl)-1H-pyrazol-3-yl)acetamide]: the inhibition at 1 µM was not below 75% at MAGL and 50 to 75% on FAAH.
With `CC(=O)Nc1ccn(C(=O)N2CCC3(CCCN3Cc3ccc(C(F)(F)F)cc3OC3CCS(=O)(=O)CC3)CC2)n1` [Example 87, N-(1-(1-(2-((1,1-dioxidotetrahydro-2H-thiopyran-4-yl)oxy)-4-(trifluoromethyl)benzyl)-1,8-diazaspiro[4.5]decane-8-carbonyl)-1H-pyrazol-3-yl)acetamide], at MAGL, the IC50 lay within 100 to 1000 nM and the inhibition at 1 µM was not below 75%. In addition, on FAAH, the IC50 is 1000 to 10000 nM and the inhibition at 1 µM lay in the range of 25 to 50%.
Take `CC(=O)Nc1ccn(C(=O)N2CCC3(CCCN3Cc3ccc(C(F)(F)F)cc3OCC(=O)N3CCCC3)CC2)n1` [Example 89, N-(1-(1-(2-(2-oxo-2-(pyrrolidin-1-yl)ethoxy)-4-(trifluoromethyl)benzyl)-1,8-diazaspiro[4.5]decane-8-carbonyl)-1H-pyrazol-3-yl)acetamide]: the inhibition at 1 µM is not below 75% at MAGL and 0 to 25% at FAAH.
Taken in the same sequence, the figures for `O=C(CO)Nc1ccn(C(=O)N2CCN(Cc3ccc(Cl)cc3)CC2)n1` [Example 91, N-(1-(4-(4-chlorobenzyl)piperazine-1-carbonyl)-1H-pyrazol-3-yl)-2-hydroxyacetamide] were not below 75% and 0 to 25%.
On to `O=C(CO)Nc1ccn(C(=O)N2CCN(Cc3cccc(Oc4ccccc4)c3)CC2)n1` [Example 92, 2-hydroxy-N-(1-(4-(3-phenoxybenzyl)piperazine-1-carbonyl)-1H-pyrazol-3-yl)acetamide], for which the inhibition at 1 µM at MAGL and on FAAH was not below 75% in each case.
In the case of `CC(=O)Nc1ccn(C(=O)N2CCC3(CCCN3Cc3ccc4c(c3)COC4)CC2)n1` [Example 97, N-(1-(1-((1,3-dihydroisobenzofuran-5-yl)methyl)-1,8-diazaspiro[4.5]decane-8-carbonyl)-1H-pyrazol-3-yl)acetamide], at MAGL, the IC50 lay in the range of 100 to 1000 nM and the inhibition at 1 µM is not below 75%. Moreover, at FAAH, the IC50 was 1000 to 10000 nM and the inhibition at 1 µM was in the range of 0 to 25%.
